Literature values as cited in patent US20050232985A1, “Ciprofloxacin hcl” (priority 2002, published 2005).
Structures can show the parent of a compound that is named as a salt.

How the values were obtained:
[1] = test system: Excherichia Coli, Klebsiella SPP., and other Enterobacter SPP., Bacillus—negative
[2] = test system: Pseudomonas aerugenosa, golden yellow Staphylococcus and Streptococcus pneumoniae

O=C(O)c1cn(C2CC2)c2cc(N3CCNCC3)c(F)cc2c1=O [Ciprofloxacin Hydrochloride, I-cyclopropyl-6-fluoro-1,4-dihydro-4-oxo-7-(I-piperazinyl)-3-quinolinecarboxylic acid]
antibacterial action versus Penicillin kinds of antibiotic (Streptococcus SPP.): less than Penicillin kinds of antibiotic | antibacterial activity [1]: wide range antibacterial activity | antibacterial action versus Norfloxacin and Peifloxacin [2]: better than other known derivatives
